This is an account of results in US20160011208A1, “ASSAY FOR POLYPEPTIDE AGGREGATION USING MICRODROPLETS” (priority 2013, published 2016).

This experiment deals with T1, Aβ1-42 (Homo sapiens, UniProt P05067).
T1 construct: Scyllo-inositol and amyloid monomers (Aβ1-42) were compartmentalised in droplets
The experiment in a line: Inhibition of Aβ1-42 aggregation in microdroplet gel beads, flow cytometric analysis. The note with it: HF488Aβ1-42 with scyllo-inositol in droplets, amyloid:inhibitor ratios 1:1 or 1:20, versus control without inhibitor; flow cytometry (FIG. 12). Format: biochemical. How it is done:
FIG. 12: Inhibition of aggregation by scyllo-inositol. Scyllo-inositol and amyloid monomers (Aβ1-42) were compartmentalised in droplets and incubated at ratios of amyloid:inhibitor of 1:1 (central bar at each time point) or 1:20 (right-hand bar at each time point), respectively. The left-hand bar at each time point represents a control with no scyllo-inositol.
A microfluidic droplet generator with a flow focusing geometry was used to generate water-in-oil droplets. The contents of the droplets were determined by the content of the supply stream: peptide buffer solution was mixed with agarose gel solution and trapped by HFE7500 oil containing a surfactant, e.g. 0.5% (w/w) fluorous tri-block copolymers. […]
Since the processed gel beads were stored in aqueous buffer solution, they could be tested via flow cytometry or FACS, a technique requiring aqueous carrier fluid, in order to assess the aggregation process and compare different intensity of aggregates inside agarose beads. Incubated and washed agarose beads with Hilyte488-labelled Aβ1-40 aggregates were sent to FACS and the beads with fluorescent aggregates were counted. […] The percentage of beads containing aggregates was calculated using the program Summit. […]
For orientation: Flow cytometry measures light scatter and fluorescence of single cells or particles in a stream.

T1 sequence (P05067 672-713 limits assumed): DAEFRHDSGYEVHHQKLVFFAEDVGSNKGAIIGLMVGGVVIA

`O[C@H]1[C@H](O)[C@@H](O)[C@H](O)[C@@H](O)[C@@H]1O` [scyllo-inositol]: the “inhibition of aggregation of Aβ1-42 monomers in gel beads” value is reported as “inhibition of aggregation by scyllo-inositol was detected”.
